# Test results: patent US9029544B2, “Tricyclic pyridine derivatives, medicaments containing such compounds, their use and process for their preparation” (Boehringer Ingelheim International GmbH, priority 2010, dated 2015)
# Biological target: T1, Recombinant human CETP (Homo sapiens, UniProt P11597)
# T1 construct: made in house; host or cells: CHO cells (secreted into conditioned medium)
# T1 sequence (P11597 18-493): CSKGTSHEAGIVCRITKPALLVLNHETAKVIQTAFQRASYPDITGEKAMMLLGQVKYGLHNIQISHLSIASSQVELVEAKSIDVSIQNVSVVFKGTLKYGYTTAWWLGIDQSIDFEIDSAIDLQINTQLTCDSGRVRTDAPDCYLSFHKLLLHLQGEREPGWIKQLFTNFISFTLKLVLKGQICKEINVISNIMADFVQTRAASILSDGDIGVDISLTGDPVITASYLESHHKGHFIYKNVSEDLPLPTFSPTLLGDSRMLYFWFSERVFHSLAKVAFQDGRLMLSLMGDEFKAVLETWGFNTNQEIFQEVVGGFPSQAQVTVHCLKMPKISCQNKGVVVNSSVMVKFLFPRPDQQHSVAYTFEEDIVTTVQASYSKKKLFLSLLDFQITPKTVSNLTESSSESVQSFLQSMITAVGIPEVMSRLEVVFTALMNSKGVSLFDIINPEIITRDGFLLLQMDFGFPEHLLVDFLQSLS
# Test: CETP in vitro assay (fluorometric assay, Roar Biomedical; cholesterol ester transfer from HDL to LDL)
# Format: biochemical
# Settings: recombinant human CETP from CHO cells; 3 hours at 37° C.; fluorescence 485/535 nm; compound concentrations between 1 nM and 30 μM; read-out: IC50 values for inhibition of CETP
# Protocol: CETP inhibitory activity of compounds of the present invention can be determined in a fluorometric assay purchased from Roar Biomedical, Inc. (New York, N.Y., USA). […] Recombinant human CETP was partially purified from medium conditioned by CETP expressing CHO cells. In a 384 well format 2.5 μl of compound solution in DMSO was combined with 2 μl of donor solution, 2 μl of acceptor solution and 0.8 μl of recombinant human CETP solution in a total volume of 100 μl with assay buffer and incubated for 3 hours at 37° C. The fluorescence intensity was measured at excitation wavelength of 485 nm and emission wavelength of 535 nm. IC50 values are calculated from dose effect curves from compound concentrations between 1 nM and 30 μM.
compound,measurement,value
"O[C@H]1CC2(CCC2)Cc2nc(C3CCOCC3)c3c(c21)C1(CCOCC1)O[C@@H]3c1ccc(C(F)(F)F)cc1 [1(77), (3R,9S)-7,7-(propan-1,3-diyl)-4-(tetrahydro-2H-pyran-4-yl)-3-(4-(trifluoromethyl)phenyl)-2′,3′,5′,6,6′,7,8,9-octahydro-3H-spiro[furo[3,4-c]quinoline-1,4′-pyran]-9-ol]",IC50,39 nM
"CC1(C)Cc2nc(C(C)(C)C)c3c(c2[C@@H](O)C1)C1(CCOCC1)O[C@@H]3c1ccc(C(F)(F)F)cc1 [1(80), (3R,9S)-4-tert-butyl-7,7-dimethyl-3-(4-(trifluoromethyl)phenyl)-2′,3′,5′,6,6′,7,8,9-octahydro-3H-spiro[furo[3,4-c]quinoline-1,4′-pyran]-9-ol]",IC50,47 nM
"CC(C)c1nc2c(c3c1[C@@H](c1ccc(C(F)(F)F)cn1)OC31CCOCC1)[C@@H](O)CC(C)(C)C2 [1(67), (3S,9S)-4-isopropyl-7,7-dimethyl-3-(5-(trifluoromethyl)pyridin-2-yl)-2′,3′,5′,6,6′,7,8,9-octahydro-3H-spiro[furo[3,4-c]quinoline-1,4′-pyran]-9-ol]",IC50,161 nM
"CC(C)Oc1ccc([C@H]2OC3(CCOCC3)c3c2c(C(C)C)nc2c3[C@@H](O)CC(C)(C)C2)cc1 [1(59), (3R,9S)-3-(4-isopropoxyphenyl)-4-isopropyl-7,7-dimethyl-2′,3′,5′,6,6′,7,8,9-octahydro-3H-spiro[furo[3,4-c]quinoline-1,4′-pyran]-9-ol]",IC50,245 nM
"CC(C)c1nc2c(c3c1[C@@H](c1ccc(S(F)(F)(F)(F)F)cc1)OC31CCOCC1)[C@@H](O)CC(C)(C)C2 [1(68), (3R,9S)-4-isopropyl-7,7-dimethyl-3-(4-(pentafluorosulfanyl)phenyl)-2′,3′,5′,6,6′,7,8,9-octahydro-3H-spiro[furo[3,4-c]quinoline-1,4′-pyran]-9-ol]",IC50,24 nM
"O[C@H]1CC2(CCC2)Cc2nc(C3CCOCC3)c3c(c21)C1(CCOCC1)O[C@@H]3c1ccc(C(F)(F)F)cn1 [1(75), (3S,9S)-7,7-(propan-1,3-diyl)-4-(tetrahydro-2H-pyran-4-yl)-3-(5-(trifluoromethyl)pyridin-2-yl)-2′,3′,5′,6,6′,7,8,9-octahydro-3H-spiro[furo[3,4-c]quinoline-1,4′-pyran]-9-ol]",IC50,288 nM
"CC1(C)Cc2nc(C3CCOCC3)c3c(c2[C@@H](O)C1)C1(CCOCC1)O[C@@H]3c1ccc(C(F)(F)F)cn1 [1(73), (3S,9S)-7,7-dimethyl-4-(tetrahydro-2H-pyran-4-yl)-3-(5-(trifluoromethyl)pyridin-2-yl)-2′,3′,5′,6,6′,7,8,9-octahydro-3H-spiro[furo[3,4-c]quinoline-1,4′-pyran]-9-ol]",IC50,1700 nM
"CC(C)c1nc2c(c3c1[C@@H](c1ccc(C(F)(F)F)cc1)OC31CCOCC1)[C@@H](O)CC1(CCCC1)C2 [1(57), (3R,9S)-4-isopropyl-7,7-(butan-1,4-diyl)-3-(4-(trifluoromethyl)phenyl)-2′,3′,5′,6,6′,7,8,9-octahydro-3H-spiro[furo[3,4-c]quinoline-1,4′-pyran]-9-ol]",IC50,82 nM
"O[C@H]1CC2(CCC2)[C@@H](O)c2nc(C3CCOCC3)c3c(c21)C1(CCOCC1)O[C@@H]3c1ccc(C(F)(F)F)cc1 [4(16), (3R,6R,9S)-7,7-(propan-1,3-diyl)-4-(tetrahydro-2H-pyran-4-yl)-3-(4-(trifluoromethyl)phenyl)-2′,3′,5′,6,6′,7,8,9-octahydro-3H-spiro[furo[3,4-c]quinoline-1,4′-pyran]-6,9-diol]",IC50,44 nM
"CC(C)c1nc2c(c3c1[C@@H](c1ccc(C(F)(F)F)cc1F)OC31CCOCC1)[C@@H](O)CC(C)(C)C2 [1(55), (3S,9S)-3-(2-fluoro-4-(trifluoromethyl)phenyl)-4-isopropyl-7,7-dimethyl-2′,3′,5′,6,6′,7,8,9-octahydro-3H-spiro[furo[3,4-c]quinoline-1,4′-pyran]-9-ol]",IC50,26 nM
"CC(C)c1nc2c(c3c1[C@@H](c1ccc(C(F)(F)F)cc1)OC31CCOCC1)[C@@H](O)CC1(CCC1)[C@H]2O [5(1), (3R,6R,9S)-4-isopropyl-7,7-(propan-1,3-diyl)-3-(4-(trifluoromethyl)phenyl)-2′,3′,5′,6,6′,7,8,9-octahydro-3H-spiro[furo[3,4-c]quinoline-1,4′-pyran]-6,9-diol]",IC50,78 nM
"CC1(C)Cc2nc(C3CCOCC3)c3c(c2[C@@H](O)C1)C1(CCOCC1)O[C@@H]3c1ccc(C(F)(F)F)nc1 [1(76), (3R,9S)-7,7-dimethyl-4-(tetrahydro-2H-pyran-4-yl)-3-(6-(trifluoromethyl)pyridin-3-yl)-2′,3′,5′,6,6′,7,8,9-octahydro-3H-spiro[furo[3,4-c]quinoline-1,4′-pyran]-9-ol]",IC50,886 nM
"O[C@H]1CC2(CCC2)[C@@H](O)c2nc(C3CCOCC3)c3c(c21)C1(CCOCC1)O[C@@H]3c1ccc(C(F)(F)F)cn1 [6(1), (3S,6R,9S)-7,7-(propan-1,3-diyl)-4-(tetrahydro-2H-pyran-4-yl)-3-(5-(trifluoromethyl)pyridin-2-yl)-2′,3′,5′,6,6′,7,8,9-octahydro-3H-spiro[furo[3,4-c]quinoline-1,4′-pyran]-6,9-diol]",IC50,1220 nM
"CC(C)c1nc2c(c3c1[C@H](c1ccc(C(F)(F)F)c(F)c1)OC31CCOCC1)[C@@H](O)CC(C)(C)C2 [1(54), (3S,9S)-3-(3-fluoro-4-(trifluoromethyl)phenyl)-4-isopropyl-7,7-dimethyl-2′,3′,5′,6,6′,7,8,9-octahydro-3H-spiro[furo[3,4-c]quinoline-1,4′-pyran]-9-ol]",IC50,1690 nM
"CC(C)c1nc2c(c3c1[C@@H](c1ccc(S(F)(F)(F)(F)F)cc1)OC31CCOCC1)[C@@H](O)CC(C)(C)[C@H]2O [4(7), (3R,6R,9S)-4-isopropyl-7,7-dimethyl-3-(4-(pentafluorosulfanyl)phenyl)-2′,3′,5′,6,6′,7,8,9-octahydro-3H-spiro[furo[3,4-c]quinoline-1,4′-pyran]-6,9-diol]",IC50,12 nM
"CC(C)c1nc2c(c3c1[C@@H](c1ccc(C(F)(F)F)c(F)c1)OC31CCOCC1)[C@@H](O)CC(C)(C)[C@H]2O [5(6), (3R,6R,9S)-3-(3-fluoro-4-(trifluoromethyl)phenyl)-4-isopropyl-7,7-dimethyl-2′,3′,5′,6,6′,7,8,9-octahydro-3H-spiro[furo[3,4-c]quinoline-1,4′-pyran]-6,9-diol]",IC50,13 nM
"COCc1nc2c(c3c1[C@@H](c1ccc(C(F)(F)F)cc1)OC31CCOCC1)[C@@H](O)CC(C)(C)C2 [1(82), (3R,9S)-4-(methoxymethyl)-7,7-dimethyl-3-(4-(trifluoromethyl)phenyl)-2′,3′,5′,6,6′,7,8,9-octahydro-3H-spiro[furo[3,4-c]quinoline-1,4′-pyran]-9-ol]",IC50,786 nM
"CC(C)c1nc2c(c3c1[C@@H](c1ccc(C4(C)COC4)cc1)OC31CCOCC1)[C@@H](O)CC(C)(C)C2 [1(64), (3R,9S)-4-isopropyl-7,7-dimethyl-3-(4-(3-methyloxetan-3-yl)phenyl)-2′,3′,5′,6,6′,7,8,9-octahydro-3H-spiro[furo[3,4-c]quinoline-1,4′-pyran]-9-ol]",IC50,86 nM
"N#Cc1cc([C@H]2OC3(CCOCC3)c3c2c(C2CCOCC2)nc2c3[C@@H](O)CC3(CCC3)C2)ccc1C(F)(F)F [1(72), 5-((3R,9S)-9-hydroxy-7,7-(propan-1,3-diyl)-4-(tetrahydro-2H-pyran-4-yl)-2′,3′,5′,6,6′,7,8,9-octahydro-3H-spiro[furo[3,4-c]quinoline-1,4′-pyran]-3-yl)-2-(trifluoromethyl)benzonitrile]",IC50,39 nM
